Assay results as given in US20110014174A1, “Lysozyme, A Novel Vasodilator of Sepsis that can be inhibited by a Peroxidase and Hydroxyl Radical Scavengers” (UNIVERSITY OF MANITOBA, priority 2007, published 2011).
“Also recorded” adds a separate entry of the source.

Assays:
[1] = test system: Lzm-S-induced carotid artery vasodilation; experiment: Prevention of Lzm-S-induced vasodilation by pretreatment agents in the carotid artery ring preparation; design: species or system canine; details: for contraction after Lzm-S relative to the value post-L-NMMA treatment: L-NMMA 10^−3 mol/L treated group (n=8); for contraction after Lzm-S relative to the value post-L-NMMA treatment / inhibition of Lzm-S-induced vasodilation (words): human Lzm-S 6.7×10^−7 mol/L; for inhibition of Lzm-S-induced vasodilation (words): pretreatment with the agent, phenylephrine contracted ring; for contraction after Lzm-S relative to the post-indomethacin plateau: indomethacin 10^−6 mol/L treated group (n=5); for contraction after Lzm-S, % of the butanol-plateau: n-butanol pretreated
[2] = test system: phenylephrine contracted canine carotid artery ring preparation; experiment: Contraction force and vasorelaxation in phenylephrine contracted canine carotid artery ring preparation; details: for force after HEPES buffer was added: ethanol 2×10^−7 mol/L control group, HEPES buffer instead of Lzm-S; for contraction after Lzm-S relative to the value pre-Lzm-S treatment: non-L-NMMA treated group (n=12), human Lzm-S 6.7×10^−7 mol/L; for contraction after Lzm-S relative to the pre-Lzm-S contraction: non-indomethacin treated group (n=4)

CNC(=N)NCCC[C@H](N)C(=O)O [L-NMMA, N^G-monomethyl-L-arginine]
contraction after Lzm-S relative to the value post-L-NMMA treatment ([1]; 5 minutes): 37±22% | contraction after Lzm-S relative to the value post-L-NMMA treatment ([1]; 15 minutes): 13±16% | contraction after Lzm-S relative to the value post-L-NMMA treatment ([1]; 30 minutes, minus = below resting force): −0.3±1% | inhibition of Lzm-S-induced vasodilation (words) [1]: did not inhibit lysozyme induced vasodilation; also recorded: did not Prevent Vasodilation | contraction with L-NMMA treatment ([2]; L-NMMA 10^−3 mol/L added after phenylephrine plateau, before Lzm-S): 8.1±3.5 grams

CCO [ethanol]
inhibition of Lzm-S-induced vasodilation (words) [1]: inhibited the effect of lysozyme | inhibition of Lzm-S-induced vasodilation (words) ([1]; listed as Ethanol): markedly effective | force after HEPES buffer was added ([2]; 5 minutes): 10.7±2.8 grams | force after HEPES buffer was added ([2]; 15 minutes): 11±2.8 grams | force after HEPES buffer was added ([2]; 30 minutes): 11±2.6 grams | contraction with ethanol as compared with the phenylephrine contraction alone ([2]; ethanol treated control group, ethanol highest concentration 2×10^−7 mol/L, before HEPES buffer): 10±2.6 grams | initial effect of ethanol on force ([2]; higher concentrations of ethanol, before Lzm-S): initial vasoconstriction

COc1ccc2c(c1)c(CC(=O)O)c(C)n2C(=O)c1ccc(Cl)cc1 [indomethacin]
contraction after Lzm-S relative to the post-indomethacin plateau ([1]; 5 minutes): 79±11% | contraction after Lzm-S relative to the post-indomethacin plateau ([1]; 15 minutes): 57±24% | contraction after Lzm-S relative to the post-indomethacin plateau ([1]; 30 minutes): 39±25% | inhibition of Lzm-S-induced vasodilation (words) [1]: did not Prevent Vasodilation | force over 30 minutes when indomethacin was added ([2]; indomethacin 10^−6 mol/L after phenylephrine, before Lzm-S): 5.6±0.5 grams

CCCCO [n-butanol]
contraction after Lzm-S, % of the butanol-plateau ([1]; 5 minutes): 84±9% | contraction after Lzm-S, % of the butanol-plateau ([1]; 15 minutes): 62±21% | contraction after Lzm-S, % of the butanol-plateau ([1]; 30 minutes): 23±27% | inhibition of Lzm-S-induced vasodilation (words) [1]: no inhibitory effect | force after the alcohol was added, % of the phenylephrine-plateau response ([2]; n-butanol (10^−7 mol/L), before Lzm-S): 61±17%

B1: human Lzm-S: Human lysozyme purchased from EMD Biosciences; used in all experiments after the initial ones (protein, UniProt P61626 19-148, looked up)
Lysozyme C: KVFERCELARTLKRLGMDGYRGISLANWMCLAKWESGYNTRATNYNAGDRSTDYGIFQINSRYWCNDGKTPGAVNACHLSCSALLQDNIADAVACAKRVVRDPQGIRAWVAWRNRCQNRDVRQYVQGCGV
vasorelaxation in the carotid artery preparation (mean values) ([2]; FIG. 2 mean values): significant vasorelaxation | contraction after Lzm-S, % of the phenylephrine plateau ([2]; endothelium denuded preparation (n=4), 5 minutes): 79±18% | contraction after Lzm-S, % of the phenylephrine plateau ([2]; endothelium denuded preparation (n=4), 15 minutes): 58±21% | contraction after Lzm-S, % of the phenylephrine plateau ([2]; endothelium denuded preparation (n=4), 30 minutes): 54±20% | contraction after Lzm-S, % of the phenylephrine plateau ([2]; endothelium intact preparation (n=4), 5 minutes): 64±25% | contraction after Lzm-S, % of the phenylephrine plateau ([2]; endothelium intact preparation (n=4), 15 minutes): 53±33% | contraction after Lzm-S, % of the phenylephrine plateau ([2]; endothelium intact preparation (n=4), 30 minutes): 76±21% | constriction after lysozyme relative to the phenylephrine value ([2]; example traces FIG. 1, phenylephrine constricted carotid ring): about 40% | vasodilatory effect ([2]; human Lzm-S 3.3×10^−7 mol/L): minimal vasodilatory effect | reduction in contraction ([2]; human Lzm-S higher concentration (6.7×10^−7 mol/L)): nearly eliminated the increase in force induced by phenylephrine | contraction after Lzm-S relative to the value pre-Lzm-S treatment ([2]; 5 minutes): 23±24% | contraction after Lzm-S relative to the value pre-Lzm-S treatment ([2]; 15 minutes): 8±27% | contraction after Lzm-S relative to the value pre-Lzm-S treatment ([2]; 30 minutes): 2±34% | contraction after Lzm-S relative to the pre-Lzm-S contraction ([2]; 5 minutes): 71±16% | contraction after Lzm-S relative to the pre-Lzm-S contraction ([2]; 15 minutes): 45±19% | contraction after Lzm-S relative to the pre-Lzm-S contraction ([2]; 30 minutes): 19±15%
